# Source: patent US20130121994A1, “TRIAZOLOPYRIDINE DERIVATIVES” (BAYER INTELLECTUAL PROPERTY GMBH, priority 2009, published 2013)
# Biological target: T1, human kinase Mps-1 (Homo sapiens, UniProt P33981)
# T1 construct: N-terminally GST-tagged human full length recombinant Mps-1 kinase; GST (N); purchased Invitrogen, Karslruhe, Germany PV4071
# T1 sequence (P33981 1-857): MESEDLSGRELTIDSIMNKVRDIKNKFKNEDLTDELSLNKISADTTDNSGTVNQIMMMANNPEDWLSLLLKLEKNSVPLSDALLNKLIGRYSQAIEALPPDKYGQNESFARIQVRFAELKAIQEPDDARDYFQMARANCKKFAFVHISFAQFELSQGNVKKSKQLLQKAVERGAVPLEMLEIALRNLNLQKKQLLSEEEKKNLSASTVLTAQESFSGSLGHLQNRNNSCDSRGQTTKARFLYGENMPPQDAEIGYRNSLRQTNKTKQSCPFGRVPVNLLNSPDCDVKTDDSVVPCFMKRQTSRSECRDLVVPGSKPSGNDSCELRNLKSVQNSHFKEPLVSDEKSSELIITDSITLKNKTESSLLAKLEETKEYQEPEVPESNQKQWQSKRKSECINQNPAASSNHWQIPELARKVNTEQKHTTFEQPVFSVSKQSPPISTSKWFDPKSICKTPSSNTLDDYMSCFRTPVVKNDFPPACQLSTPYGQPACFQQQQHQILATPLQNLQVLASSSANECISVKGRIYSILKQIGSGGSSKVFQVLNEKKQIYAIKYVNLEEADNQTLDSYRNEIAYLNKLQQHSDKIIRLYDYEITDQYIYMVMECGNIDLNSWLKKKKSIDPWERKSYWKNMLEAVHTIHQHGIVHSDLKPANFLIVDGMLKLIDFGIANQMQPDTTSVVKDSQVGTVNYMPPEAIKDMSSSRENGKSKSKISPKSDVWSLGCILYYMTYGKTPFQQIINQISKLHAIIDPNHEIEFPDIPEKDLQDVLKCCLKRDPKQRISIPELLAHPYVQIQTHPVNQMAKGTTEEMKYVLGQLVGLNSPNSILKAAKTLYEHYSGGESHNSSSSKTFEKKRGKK
# Experiment: Mps-1 kinase assay (HTRF)
# Format: biochemical
row,IC50 [nM],SMILES
1,4.18,"N#Cc1ccccc1Nc1nc2ccc(-c3cccc(C(=O)NCC(F)F)c3)cn2n1 [Example 11.050, 3-{2-[(2-cyanophenyl)amino][1,2,4]triazolo[1,5-a]pyridin-6-yl}-N-(2,2-difluoroethyl)benzamide]"
2,5.68,"CC(C)[C@H](C)NC(=O)c1cccc(-c2ccc3nc(Nc4ccccc4C#N)nn3c2)c1 [Example 11.051, 3-{2-[(2-cyanophenyl)amino][1,2,4]triazolo[1,5-a]pyridin-6-yl}-N-[(2S)-3-methylbutan-2-yl]benzamide]"
3,6.37,"CCCNC(=O)c1cccc(-c2ccc3nc(Nc4ccccc4C#N)nn3c2)c1 [Example 11.052, 3-{2-[(2-cyanophenyl)amino][1,2,4]triazolo[1,5-a]pyridin-6-yl}-N-propylbenzamide]"
4,6.13,"N#Cc1ccccc1Nc1nc2ccc(-c3cccc(C(=O)NCCF)c3)cn2n1 [Example 11.054, 3-{2-[(2-cyanophenyl)amino][1,2,4]triazolo[1,5-a]pyridin-6-yl}-N-(2-fluoroethyl)benzamide]"
5,9.81,"CC(C)(C)CCNC(=O)c1cccc(-c2ccc3nc(Nc4ccccc4C#N)nn3c2)c1 [Example 11.055, 3-{2-[(2-cyanophenyl)amino][1,2,4]triazolo[1,5-a]pyridin-6-yl}-N-(3,3-dimethylbutyl)benzamide]"
6,9.04,"COC(C)(C)CNC(=O)c1cccc(-c2ccc3nc(Nc4ccccc4C#N)nn3c2)c1 [Example 11.060, 3-{2-[(2-cyanophenyl)amino][1,2,4]triazolo[1,5-a]pyridin-6-yl}-N-(2-methoxy-2-methylpropyl)benzamide]"
7,13.9,"CC(C)(O)CNC(=O)c1cccc(-c2ccc3nc(Nc4ccccc4C#N)nn3c2)c1 [Example 11.062, 3-{2-[(2-cyanophenyl)amino][1,2,4]triazolo[1,5-a]pyridin-6-yl}-N-(2-hydroxy-2-methylpropyl)benzamide]"
8,26.5,"C[C@H](NC(=O)c1cccc(-c2ccc3nc(Nc4ccccc4C#N)nn3c2)c1)C(F)(F)F [Example 11.064, 3-{2-[(2-cyanophenyl)amino][1,2,4]triazolo[1,5-a]pyridin-6-yl}-N-[(2S)-1,1,1-trifluoropropan-2-yl]benzamide]"
9,24.7,"COCCNC(=O)c1cccc(-c2ccc3nc(Nc4ccccc4C#N)nn3c2)c1 [Example 11.068, 3-{2-[(2-cyanophenyl)amino][1,2,4]triazolo[1,5-a]pyridin-6-yl}-N-(2-methoxyethyl)benzamide]"
10,29.7,"N#Cc1ccccc1Nc1nc2ccc(-c3cccc(C(=O)NCCO)c3)cn2n1 [Example 11.070, 3-{2-[(2-cyanophenyl)amino][1,2,4]triazolo[1,5-a]pyridin-6-yl}-N-(2-hydroxyethyl)benzamide]"
11,36.9,"C[C@H](O)CNC(=O)c1cccc(-c2ccc3nc(Nc4ccccc4C#N)nn3c2)c1 [Example 11.071, 3-{2-[(2-cyanophenyl)amino][1,2,4]triazolo[1,5-a]pyridin-6-yl}-N-[(2S)-2-hydroxypropyl]benzamide]"

# The remaining lines, values behind:
row,SMILES,IC50 [nM]
1,"CC(C)(C)CNC(=O)c1cc(F)cc(-c2ccc3nc(Nc4ccccc4C#N)nn3c2)c1 [Example 11.056, 3-{2-[(2-cyanophenyl)amino][1,2,4]triazolo[1,5-a]pyridin-6-yl}-N-(2,2-dimethylpropyl)-5-fluorobenzamide]",9.21
2,"C[C@H](NC(=O)c1cccc(-c2ccc3nc(Nc4ccccc4C#N)nn3c2)c1)C(C)(C)C [Example 11.057, 3-{2-[(2-cyanophenyl)amino][1,2,4]triazolo[1,5-a]pyridin-6-yl}-N-[(2S)-3,3-dimethylbutan-2-yl]benzamide]",12.2
3,"CC(C)(C)CNC(=O)c1cccc(-c2ccc3nc(Nc4ccccc4C#N)nn3c2)c1F [Example 11.058, 3-{2-[(2-cyanophenyl)amino][1,2,4]triazolo[1,5-a]pyridin-6-yl}-N-(2,2-dimethylpropyl)-2-fluorobenzamide]",12.8
4,"N#Cc1ccccc1Nc1nc2ccc(-c3cc(F)cc(C(=O)NCC(F)(F)F)c3)cn2n1 [Example 11.059, 3-{2-[(2-cyanophenyl)amino][1,2,4]triazolo[1,5-a]pyridin-6-yl}-5-fluoro-N-(2,2,2-trifluoroethyl)benzamide]",12.6
5,"N#Cc1ccccc1Nc1nc2ccc(-c3cccc(C(=O)NCC(F)(F)F)c3F)cn2n1 [Example 11.061, 3-{2-[(2-cyanophenyl)amino][1,2,4]triazolo[1,5-a]pyridin-6-yl}-2-fluoro-N-(2,2,2-trifluoroethyl)benzamide]",12.9
6,"N#Cc1ccccc1Nc1nc2ccc(-c3cccc(C(=O)NCC(F)(F)C(F)(F)F)c3F)cn2n1 [Example 11.063, 3-{2-[(2-cyanophenyl)amino][1,2,4]triazolo[1,5-a]pyridin-6-yl}-2-fluoro-N-(2,2,3,3,3-pentafluoropropyl)benzamide]",17.3
7,"CC(C)(C)NC(=O)c1cccc(-c2ccc3nc(Nc4ccccc4C#N)nn3c2)c1F [Example 11.065, N-tert-butyl-3-{2-[(2-cyanophenyl)amino][1,2,4]triazolo[1,5-a]pyridin-6-yl}-2-fluorobenzamide]",18.2
8,"CC(F)(F)CNC(=O)c1cccc(-c2ccc3nc(Nc4ccccc4C#N)nn3c2)c1F [Example 11.066, 3-{2-[(2-cyanophenyl)amino][1,2,4]triazolo[1,5-a]pyridin-6-yl}-N-(2,2-difluoropropyl)-2-fluorobenzamide]",26.7
9,"N#Cc1ccccc1Nc1nc2ccc(-c3cccc(C(=O)NCCC(F)(F)F)c3F)cn2n1 [Example 11.067, 3-{2-[(2-cyanophenyl)amino][1,2,4]triazolo[1,5-a]pyridin-6-yl}-2-fluoro-N-(3,3,3-trifluoropropyl)benzamide]",23.9
10,"N#Cc1ccccc1Nc1nc2ccc(-c3cccc(C(=O)NCC(F)F)c3F)cn2n1 [Example 11.069, 3-{2-[(2-cyanophenyl)amino][1,2,4]triazolo[1,5-a]pyridin-6-yl}-N-(2,2-difluoroethyl)-2-fluorobenzamide]",34.2
11,"N#Cc1ccccc1Nc1nc2ccc(-c3cccc(C(=O)NCCF)c3F)cn2n1 [Example 11.072, 3-{2-[(2-cyanophenyl)amino][1,2,4]triazolo[1,5-a]pyridin-6-yl}-2-fluoro-N-(2-fluoroethyl)benzamide]",42.2
12,"N#Cc1ccccc1Nc1nc2ccc(-c3ccc(F)c(C(=O)O)c3)cn2n1 [Example 11.073, 5-{2-[(2-cyanophenyl)amino][1,2,4]triazolo[1,5-a]pyridin-6-yl}-2-fluorobenzoic acid]",43.5
13,"N#Cc1ccccc1Nc1nc2ccc(-c3cc(F)cc(C(=O)O)c3)cn2n1 [Example 11.074, 3-{2-[(2-cyanophenyl)amino][1,2,4]triazolo[1,5-a]pyridin-6-yl}-5-fluorobenzoic acid]",170
14,"CCOC(=O)c1cc(F)cc(-c2ccc3nc(Nc4ccccc4C#N)nn3c2)c1 [Example 11.075, ethyl 3-{2-[(2-cyanophenyl)amino][1,2,4]triazolo[1,5-a]pyridin-6-yl}-5-fluorobenzoate]",1980
15,"CNC(=O)c1ccc(Nc2nc3ccc(-c4cccc(C(=O)NCC(C)(C)C)c4)cn3n2)c(OC)c1 [Example 11.076, 4-[(6-{3-[(2,2-dimethylpropyl)carbamoyl]phenyl}[1,2,4]tria-zolo[1,5-a]pyridin-2-yl)amino]-3-methoxy-N-methylbenzamide]",≤ 1
16,"COc1cc(C(=O)NC(C)(C)C)ccc1Nc1nc2ccc(-c3cccc(C(=O)NCC(F)(F)F)c3)cn2n1 [Example 11.077, N-tert-butyl-3-methoxy-4-[(6-{3-[(2,2,2-trifluoroethyl)carbamoyl]phenyl}[1,2,4]triazolo [1,5-a]pyridin-2-yl)amino]benzamide]",≤ 1
17,"COc1cc(C(=O)NCCS(C)(=O)=O)ccc1Nc1nc2ccc(-c3cccc(C(=O)NCC(C)(C)C)c3)cn2n1 [Example 11.078, 4-[(6-{3-[(2,2-dimethylpropyl)carbamoyl]phenyl}[1,2,4]tria-zolo[1,5-a]pyridin-2-yl)amino]-3-methoxy-N-[2-(methylsulfonyl)ethyl]benzamide]",≤ 1
18,"CCNC(=O)c1ccc(Nc2nc3ccc(-c4cccc(C(=O)NCC(C)(C)C)c4)cn3n2)c(OC)c1 [Example 11.079, 4-[(6-{3-[(2,2-dimethylpropyl)carbamoyl]phenyl}[1,2,4]tria-zolo[1,5-a]pyridin-2-yl)amino]-N-ethyl-3-methoxybenzamide]",≤ 1
19,"COc1cc(C(=O)NCCS(C)(=O)=O)ccc1Nc1nc2ccc(-c3cccc(C(=O)NCC(F)(F)F)c3)cn2n1 [Example 11.080, 3-methoxy-N-[2-(methylsulfonyl)ethyl]-4-[(6-{3-[(2,2,2-trifluoroethyl)carbamoyl]phenyl}[1,2,4]triazolo [1,5-a]pyridin-2-yl)amino]benzamide]",≤ 1
